Results reported in the SangsterLogP compilation.
Square brackets hold non-standard residues; d marks the D form. Peptide text beside a SMILES is read from it. NMeF = CN[CH](Cc1ccccc1)C(=O)O

Key:
[1] = method code SF, from Moerlein, M.; Dischino, D.; Raymond, N.; Weitl, L.; Welch, J. (1982). Factors affecting the cerebral uptake of gallium complexes. J Labelled Comp Radiopharm, 19(11-12)1421-1422.; conditions: pH 7.0
[2] = method code SF, from DOI: 10.1021/jm00088a010, PMID: 1350310
[3] = pH 6.5
[4] = method code SF-FL, from DOI: 10.1021/acs.jmedchem.5b00420, PMID: 26263187
[5] = method code SF-AS, from DOI: 10.1021/ja00198a050
[6] = pH 6.5; remark: listed apart in the source
[7] = method code SF-AS, from DOI: 10.1016/j.ejmech.2010.02.047, PMID: 20227799; conditions: pH 7.4
[8] = method code SF-HPLC, from DOI: 10.1248/cpb.38.1906, PMID: 2268893; conditions: pH 6.9
[9] = method code SF, from DOI: 10.1021/jm00262a020, PMID: 4716184
[10] = method code SF, from DOI: 10.1021/jm00079a001, PMID: 1732531; conditions: pH 7.4
[11] = method code SF-RC, from DOI: 10.1021/jm00392a008, PMID: 3625705
[12] = not given; remark: listed apart in the source
[13] = method code SF, from DOI: 10.1021/jm00169a014, PMID: 2362268; conditions: pH 7.4
[14] = not given; remark: listed apart in the source
[15] = not given; remark: listed apart in the source
[16] = method code SF-AS, from DOI: 10.1016/j.ejmech.2009.02.028, PMID: 19321234
[17] = method code SF-AS, from DOI: 10.1111/j.1476-5381.1987.tb08980.x, PMID: 3036289; conditions: pH 7.4
[18] = not given; remark: listed apart in the source
[19] = method code SF-RC, from DOI: 10.1023/a:1015867608405, PMID: 1614980; conditions: pH 7.4
[20] = not given; remark: listed apart in the source
[21] = method code SF-RC, from DOI: 10.1016/j.nucmedbio.2016.01.003, PMID: 27067043; conditions: pH 7.4
[22] = method code SF-HPLC, from DOI: 10.1016/0378-5173(91)90200-8; conditions: pH 7.4
[23] = not given; remark: listed apart in the source
[24] = method code SF-HPLC, from DOI: 10.1002/jccs.199500138
[25] = method code SF, from DOI: 10.1016/0006-2952(92)90292-q, PMID: 1371213; conditions: pH 7.4
[26] = method code SF-AS, from DOI: 10.1016/s0026-895x(25)13330-0, PMID: 3162758; conditions: pH 4.5
[27] = method code SF-AS, from DOI: 10.1016/s0960-894x(99)00527-2, PMID: 10571171; conditions: pH 7.0
[28] = not given; remark: listed apart in the source
[29] = method code SF-HPLC, from DOI: 10.1021/js9504200, PMID: 8742941; conditions: pH 7.4
[30] = not given; remark: listed apart in the source
[31] = method code SF-AS, from Zhang, L.; Fu, G.; Wan, Y. (2014). Determination of verbascoside and its oil-water partition coefficient by ultraviolet spectrophotometry. Shipin Anquan ZhiliangJjiance Xuebao, 5(2)528-532.
[32] = not given; remark: listed apart in the source
[33] = method code SF-AS, from DOI: 10.1021/jm00371a014, PMID: 6716401; conditions: pH 7.4

CCCCCCN(CCCCN(CCCN(CCCCCC)C(=O)c1cccc(O)c1O)C(=O)c1cccc(O)c1O)C(=O)c1cccc(O)c1O
logD [1]: -1.52

COC1C(OC(C)=O)CC(=O)OC(C)CC=CC=CC(O)C(C)CC(CC=O)C1OC1OC(C)C(OC2C[C@@](C)(O)C(OC(=O)CC(C)C)C(C)O2)C(N(C)C)C1O (some centres undefined)
logP: 2.39

O=C(COc1ccc(OCCNCC(O)COc2ccccc2)cc1)N1CCc2ccccc2C1 (centres undefined)
logP [2]: 3.6

CCN1CC(C(O)C(CC2CCCCC2)NC(=O)C(Cc2cc[nH]n2)NC(=O)C(CC(=O)N2CCOCC2)Cc2ccccc2)OC1=O (centres undefined)
logD [3]: 2.52

COc1cccc2c1C(=O)c1c(O)c3c(c(O)c1C2=O)CC(O)(C(=O)CO)CC3OC1CC(NC(=O)C2CCC(CN3C(=O)CC(SCCN)C3=O)CC2)C(O)C(C)O1 (centres undefined)
logP [4]: -0.02

CC(C)(C)c1ccc2c(c1)OCCOCCOCCOCCOCCOCCOCCOCCOCCO2
logP [5]: 1.69

CCCCC(OC(Cc1ccccc1)C(=O)N1CCC(OCOC)CC1)C(=O)NC(CC1CCCCC1)C(O)CC(C(=O)NCc1nn[nH]n1)C(C)C (centres undefined)
logD [6]: 2.9

COc1ccc(-c2oc3cc(C(C)=O)cc(OC)c3c(=O)c2-c2ccc(-c3ccccc3)cc2)cc1OC
logD [7]: 3.95

CCOC(=O)OCCC(SC(=O)OCC)=C(C)N(C=O)CC1=C(C(=O)OCOC(=O)C(C)(C)C)N2C(=O)C(NC(=O)C(=NOC)c3csc(N)n3)C2SC1 (centres undefined)
logD [8]: 3.34

CC[C@@H](C(=O)[C@@H](C)[C@@H](O)[C@H](C)CCc1ccc(C)c(O)c1C(=O)O)[C@H]1O[C@](CC)([C@H]2CC[C@](O)(CC)[C@H](C)O2)C[C@@H]1C
logP [9]: 2.85

C=CC[C@H](NC(=O)[C@@H](Cc1ccccc1)NS(=O)(=O)N1CCN(C)CC1)C(=O)NC(CC1CCCCC1)C(=O)C(F)(F)C(=O)NCCN1CCOCC1 (some centres undefined)
logD [10]: 2.73

CC/C=C\C/C=C\C/C=C\CCCCCCCC(=O)OCC(COC(=O)CCCN)OC(=O)CCCN (centres undefined)
logP [11]: 0.33

Nc1cccc(CN2C(=O)N(c3cccc(C(=O)Nc4cnccn4)c3)C(Cc3ccccc3)C(O)C(O)C2Cc2ccccc2)c1 (centres undefined)
logP [12]: 3.77

C=C1[C@@H](C)[C@H]2[C@H](Cc3ccccc3)NC(=O)[C@]23OC(=O)/C=C\[C@H](O)CCC[C@@H](C)C/C=C/[C@H]3[C@@H]1O
logD [13]: 3.37

CCCCCCCCc1ccc(OCC(=O)Cn2cc(C(C)=O)c3cc(C(=O)O)ccc32)cc1
logP [14]: 5.8

CC(C)Cc1ccc(C(Nc2cccc(C(=O)c3cn(CCCC(=O)O)c4ccccc34)c2)c2ccc(CC(C)C)cc2)cc1
logP [15]: 3

CCCCCCCCCCCCCC(=O)NC(C(=O)Nc1ccn(C2OC(CO)C(O)C2O)c(=O)n1)c1ccc(O)cc1 (centres undefined)
logP [16]: 0.9

C[C@@H]1O[C@@H](O[C@H]2C[C@@H](O)[C@]3(CO)[C@H]4[C@H](O)C[C@]5(C)[C@@H]([C@@H]6COC(=O)C6)CC[C@]5(O)[C@@H]4CC[C@]3(O)C2)[C@H](O)[C@H](O)[C@H]1O
logD [17]: -0.7

COc1cc(C)c(S(=O)(=O)NC(CC(=O)NC2OC(CO)C(O)C(O)C2NC(C)=O)C(=O)NC(Cc2ccc(C(=N)N)cc2)C(=O)N2CCCCC2)c(C)c1C (centres undefined)
logP [18]: -1.5

CC(=O)NC(Cc1ccccc1)C(=O)N(C)C(Cc1ccccc1)C(=O)N(C)C(Cc1ccccc1)C(N)=O (centres undefined) (Ac-Phe-[NMeF]-[NMeF]-NH2; configuration not given here)
logD [19]: 2.53

CC(C)C[C@H](NC(=O)Cc1ccc(C(=O)O)c(OCCF)c1)c1ccccc1N1CCCCC1
logP [20]: 2.39

C=CC(=O)NCCCC[C@H](NC(=O)Cc1ccccc1)C(=O)N1CCN(c2cccc(C)n2)CC1
logD [21]: 2.09

CCC(C(=O)OCc1ccc(COC(=O)C(CC)C(COC(=O)C2CC2)Cc2cncn2C)cc1)C(COC(=O)C1CC1)Cc1cncn1C (centres undefined)
logD [22]: 4.2

CCOc1ccc(N2CCN(CC(O)CC(Cc3ccccc3)C(=O)NC3c4ccccc4CC3O)C(C(=O)NC(C)(C)C)C2)cn1 (centres undefined)
logP [23]: 3.62

CC(=O)O[C@@H]1CC[C@]2(C)C3=CC[C@]4(C)[C@@H]([C@H](C)CC/C=C(\C)C(=O)O)C[C@@H](OC(C)=O)[C@@]4(C)C3=CC[C@H]2C1(C)C
logP [24]: 2.74

CN(CC(=O)N[C@@H]1CC[C@@]2(O)[C@H]3Cc4ccc(O)c5c4[C@@]2(CCN3CC2CC2)[C@H]1O5)c1ccc([N+](=O)[O-])c2nonc12
logD [25]: 1

COc1cc([C@@H]2c3cc4c(cc3[C@@H](O[C@@H]3O[C@@H]5CO[C@@H](c6cccs6)O[C@H]5[C@H](O)[C@H]3O)[C@H]3COC(=O)[C@H]23)OCO4)cc(OC)c1O
logD [26]: 1.8

O=C(NCCCC(CO)(CCCNC(=O)c1ccc2cccnc2c1O)CCCNC(=O)c1ccc2cccnc2c1O)c1ccc2cccnc2c1O
logD [27]: 1.2

O=C(CCCCCCCCCCn1ccnc1[N+](=O)[O-])Nc1ccc(-c2nc3ccccc3s2)cc1
logP [28]: 1.99

O=C(OCCCCCC1CCSS1)c1cc(=O)c2c(OCC(O)COc3cccc4oc(C(=O)OCCCCCC5CCSS5)cc(=O)c34)cccc2o1 (centres undefined)
logD [29]: 2.87

Cc1c(O)cccc1C(=O)N[C@@H](CSc1ccccc1)[C@H](O)CN1C[C@H]2CCCC[C@H]2C[C@H]1C(=O)NC(C)(C)C
logP [30]: 4

C[C@@H]1O[C@@H](OC2[C@@H](O)C(OCCc3ccc(O)c(O)c3)OC(CO)[C@H]2OC(=O)/C=C/c2ccc(O)c(O)c2)[C@H](O)C(O)C1O (some centres undefined)
logP [31]: -0.57

CCCN(CCC)C(=O)Cc1c(-c2ccc(OC(=O)NCCc3ccc(O)c(O)c3)cc2)nc2c(Cl)cc(Cl)cn12
logP [32]: 4.79

COc1cccc2c1C(=O)c1c(O)c3c(c(O)c1C2=O)CC(O)(C(C)=O)CC3OC1CC(N2CCOCC2C#N)C(O)C(C)O1 (centres undefined)
logD [33]: 2.59
